Common to all, as to type: cell-based
In one series the test system is HIV-1 (IIIB). The experiment in a line: Antiviral assay in MT-4 cells. The following applies: HIV-1 IIIB infected MT-4 cells, 5 days, Cell Titer Glo, read-out: MT4 EC50. In a few lines:
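MT-4 cells infected with a 1:250 dilution of HIV-1 IIIB stock were incubated with serially diluted (1:3) compound for 5 days at 37 °C. Viability read by Cell Titer Glo luminescence; EC50 is the concentration giving 50% decrease in signal, from sigmoidal dose-response fits.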

Another series concerns MT-4 cells. Put plainly: Cytotoxicity assay in MT-4 cells. The settings on record: uninfected MT-4 cells, 5 days, Cell Titer Glo; read-out: CC50. The essentials: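 Uninfected MT-4 cells were incubated with 1:3 serially diluted compound in RPMI/10% FBS for 5 days at 37° C. Viability was read by CellTiter-Glo luminescence, with 10 μM puromycin as the baseline cytotoxicity control. Values are the concentration giving a 50% decrease in luminescence, from sigmoidal dose-response fits.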
(ATP-based viability assays read luminescence as a measure of living cells.)

The subject of a further series is pLai RLuc reporter virus. Put plainly: HIV MT-4 serum shift antiviral reporter assay. In a few lines: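 MT-4 cells pre-infected with pLai RLuc virus for 2 h at 37 °C, then incubated 72 h at 37 °C with compound in medium (RPMI, 10% FBS) with or without 50% human serum; Renilla luminescence read. EC50 from sigmoidal fit; serum shift = EC50(HS/CCM)/EC50(CCM).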
On the technique in general: A reporter such as luciferase makes a cellular process visible.

Setting [1] is: HS/CCM: 50% human serum, 72 h, Renilla Glo, read-out: RLUC 50% HS.
Where [2] appears, read: cell culture media (RPMI, 10% FBS), 72 h, Renilla Glo, read-out: RLUC CCM.
The mark [3] stands for this setting: Human immunodeficiency virus 1, IIIB, MT4, 120 h.
The mark [4] stands for this setting: read-out: RLUC 50% HS, HS/CCM: 50% human serum, 72 h, Renilla Glo.
Where [5] appears, read: read-out: RLUC CCM, cell culture media (RPMI, 10% FBS), 72 h, Renilla Glo.

In general, CC50 refers to the concentration giving 50% cytotoxicity.

Molecules are shown by their SMILES. Like-named read-outs stand apart in the source and are kept apart here.

As for `O=C(NCc1c(F)cc(F)cc1F)c1cn2c(c(O)c1=O)C(=O)N1Cc3cc(F)ccc3CN2C1` [Example C1, (6R)-10-fluoro-1-hydroxy-2,14-dioxo-N-(2,4,6-trifluorobenzyl)-2,7,12,14-tetrahydro-6,13-methanobenzo[g]pyrido[1,2-b][1,2,5]triazonine-3-carboxamide], the EC50 amounted to 20 nM in the series on HIV-1 (IIIB), 30.2 nM in the series on pLai RLuc reporter virus (setting [1]) and 3.18 nM in the series with pLai RLuc reporter virus (setting [2]). Besides, the CC50 in the series on MT-4 cells was determined as 10100 nM.

Regarding `O=C(NCc1c(F)cc(F)cc1F)c1cn2c(c(O)c1=O)C(=O)N1Cc3ccc(F)cc3CN2C1` [Example C2, (6R)-9-fluoro-1-hydroxy-2,14-dioxo-N-(2,4,6-trifluorobenzyl)-2,7,12,14-tetrahydro-6,13-methanobenzo[g]pyrido[1,2-b][1,2,5]triazonine-3-carboxamide], the EC50 in the series with HIV-1 (IIIB) is 18 nM; with pLai RLuc reporter virus (setting [1]), 47.9 nM; with pLai RLuc reporter virus (setting [2]), 2.86 nM. In the series on MT-4 cells, the CC50 was determined as 12800 nM.

Consider `O=C(NCc1c(F)cc(F)cc1F)c1cn2c(c(O)c1=O)C(=O)N1Cc3cc(F)ccc3CN2C1` [Example C3, (6S)-10-fluoro-1-hydroxy-2,14-dioxo-N-(2,4,6-trifluorobenzyl)-2,7,12,14-tetrahydro-6,13-methanobenzo[g]pyrido[1,2-b][1,2,5]triazonine-3-carboxamide], for which the EC50 was 1.7 nM in the series on HIV-1 (IIIB), 2.72 nM in the series on pLai RLuc reporter virus (setting [1]) and 0.39 nM with pLai RLuc reporter virus (setting [2]). Besides, the CC50 with MT-4 cells was 13400 nM.

As for `O=C(NCc1c(F)cc(F)cc1F)c1cn2c(c(O)c1=O)C(=O)N1Cc3ccc(F)cc3CN2C1` [Example C4, (6S)-9-fluoro-1-hydroxy-2,14-dioxo-N-(2,4,6-trifluorobenzyl)-2,7,12,14-tetrahydro-6,13-methanobenzo[g]pyrido[1,2-b][1,2,5]triazonine-3-carboxamide], the results for the EC50 with HIV-1 (IIIB), in the series on pLai RLuc reporter virus (setting [1]) and with pLai RLuc reporter virus (setting [2]) were 1.2 nM, 6.08 nM and 0.54 nM, respectively. Besides, the half-maximal cytotoxic concentration (CC50) in the series on MT-4 cells is 12000 nM.

Consider `C[C@@H]1C/C=C\[C@H](C)N2CN1n1cc(C(=O)NCc3c(F)cc(F)cc3F)c(=O)c(O)c1C2=O` [Example C7, (1S,2R,6S,Z)-9-hydroxy-2,6-dimethyl-8,10-dioxo-N-(2,4,6-trifluorobenzyl)-3,6,8,10-tetrahydro-2H-1,7-methanopyrido[1,2-b][1,2,5]triazecine-11-carboxamide], for which the EC50 with HIV-1 (IIIB) was determined as 2.1 nM; in the series with pLai RLuc reporter virus (setting [1]), 172 nM; in the series with pLai RLuc reporter virus (setting [2]), 0.35 nM. Further, in the series on MT-4 cells, the half-maximal cytotoxic concentration (CC50) amounted to 9190 nM.

With `C[C@@H]1CCC[C@H](C)N2CN1n1cc(C(=O)NCc3c(F)cc(F)cc3F)c(=O)c(O)c1C2=O` [Example C8, (1S,2R,6S)-9-hydroxy-2,6-dimethyl-8,10-dioxo-N-(2,4,6-trifluorobenzyl)-3,4,5,6,8,10-hexahydro-2H-1,7-methanopyrido[1,2-b][1,2,5]triazecine-11-carboxamide], the results for the EC50 in the series with HIV-1 (IIIB) (setting [3]), with pLai RLuc reporter virus (setting [4]) and with pLai RLuc reporter virus (setting [5]) were 1.8 nM, 16.4 nM and 0.55 nM, respectively. For the same compound, the 50% cytotoxic concentration (CC50) in the series with MT-4 cells was 4720 nM.

As for `C[C@@H]1C/C=C\CN2CN1n1cc(C(=O)NCc3ccc(F)cc3F)c(=O)c(O)c1C2=O` [Example C10, (1R,2R,Z)—N-(2,4-difluorobenzyl)-9-hydroxy-2-methyl-8,10-dioxo-3,6,8,10-tetrahydro-2H-1,7-methanopyrido[1,2-b][1,2,5]triazecine-11-carboxamide], the EC50 is 1.8 nM in the series on HIV-1 (IIIB), 339 nM with pLai RLuc reporter virus (setting [1]) and 0.4 nM in the series on pLai RLuc reporter virus (setting [2]). The cytotoxic concentration (CC50) with MT-4 cells stood at 7570 nM.

As to `C[C@@H]1C/C=C\CN2CN1n1cc(C(=O)NCc3ccc(F)cc3F)c(=O)c(O)c1C2=O` [Example C11, (1S,2R,Z)—N-(2,4-difluorobenzyl)-9-hydroxy-2-methyl-8,10-dioxo-3,6,8,10-tetrahydro-2H-1,7-methanopyrido[1,2-b][1,2,5]triazecine-11-carboxamide], the EC50 in the series on HIV-1 (IIIB) is 1.1 nM; with pLai RLuc reporter virus (setting [1]) it was 7.32 nM; with pLai RLuc reporter virus (setting [2]) it was 0.27 nM. Also, in the series on MT-4 cells, the CC50 is 9930 nM.

Take `C[C@@H]1CCC[C@H](C)N2CN1n1cc(C(=O)NCc3c(F)cc(F)cc3F)c(=O)c(O)c1C2=O` [Example C14, (1R,2S,6R)-9-hydroxy-2,6-dimethyl-8,10-dioxo-N-(2,4,6-trifluorobenzyl)-3,4,5,6,8,10-hexahydro-2H-1,7-methanopyrido[1,2-b][1,2,5]triazecine-11-carboxamide]: the EC50 in the series on HIV-1 (IIIB) was determined as 2 nM; in the series with pLai RLuc reporter virus (setting [4]), 31.1 nM; in the series on pLai RLuc reporter virus (setting [5]) it was 0.71 nM. The CC50 in the series on MT-4 cells stood at 8060 nM.

`C[C@H]1/C=C\C[C@H](C)N2CN1C(=O)c1c(O)c(=O)c(C(=O)NCc3c(F)cc(F)cc3F)cn12` [Example C19, (1R,2S,6S,Z)-9-hydroxy-2,6-dimethyl-8,10-dioxo-N-(2,4,6-trifluorobenzyl)-3,6,8,10-tetrahydro-2H-1,7-methanopyrido[1,2-b][1,2,5]triazecine-11-carboxamide]: the EC50 with HIV-1 (IIIB) turned out to be 1.1 nM; with pLai RLuc reporter virus (setting [1]), 60.3 nM; with pLai RLuc reporter virus (setting [2]) it was 0.41 nM. The half-maximal cytotoxic concentration (CC50) with MT-4 cells was 10200 nM.

Consider `C[C@@H]1CCC[C@H](C)N2CN1n1cc(C(=O)NCc3c(F)cc(F)cc3F)c(=O)c(O)c1C2=O` [Example C21, (1R,2S,6S)-9-hydroxy-2,6-dimethyl-8,10-dioxo-N-(2,4,6-trifluorobenzyl)-3,4,5,6,8,10-hexahydro-2H-1,7-methanopyrido[1,2-b][1,2,5]triazecine-11-carboxamide], for which the EC50 with HIV-1 (IIIB) came to 1.7 nM; in the series with pLai RLuc reporter virus (setting [4]), 98.1 nM; with pLai RLuc reporter virus (setting [5]), 0.23 nM. In the series on MT-4 cells, the 50% cytotoxic concentration (CC50) is 11700 nM.

As for `C[C@H]1CCC[C@H](C)N2CN1C(=O)c1c(O)c(=O)c(C(=O)NCc3c(F)cc(F)cc3F)cn12` [Example C23, (1S,2S,6S)-9-hydroxy-2,6-dimethyl-8,10-dioxo-N-(2,4,6-trifluorobenzyl)-3,4,5,6,8,10-hexahydro-2H-1,7-methanopyrido[1,2-b][1,2,5]triazecine-11-carboxamide], the EC50 in the series on HIV-1 (IIIB) (setting [3]) came out at 2.5 nM; in the series with pLai RLuc reporter virus (Human immunodeficiency virus 1, 72 h, read-out: RLUC 50% HS (nM), HS/CCM: 50% human serum, 72 h, Renilla Glo), 14.5 nM; in the series with pLai RLuc reporter virus (Human immunodeficiency virus 1, 72 h, read-out: RLUC CCM (nM), cell culture media (RPMI, 10% FBS), 72 h, Renilla Glo), 0.29 nM. In the series on MT-4 cells, the CC50 was 50000 nM.

For the compound `C[C@H]1C=C[C@H](C)N2CN1C(=O)c1c(O)c(=O)c(C(=O)NCc3c(F)cc(F)cc3F)cn12` [Example C26, (1R,2S,5S)-8-hydroxy-2,5-dimethyl-7,9-dioxo-N-(2,4,6-trifluorobenzyl)-2,5,7,9-tetrahydro-1,6-methanopyrido[1,2-b][1,2,5]triazonine-10-carboxamide], the values for the EC50 in the series on HIV-1 (IIIB), in the series with pLai RLuc reporter virus (setting [4]) and in the series on pLai RLuc reporter virus (setting [5]) were 2.4 nM, 349 nM and 0.63 nM, respectively. The CC50 in the series on MT-4 cells came out at 28100 nM.

On to `C[C@H]1CC[C@H](C)N2CN1C(=O)c1c(O)c(=O)c(C(=O)NCc3c(F)cc(F)cc3F)cn12` [Example C28, (1S,2S,5S)-8-hydroxy-2,5-dimethyl-7,9-dioxo-N-(2,4,6-trifluorobenzyl)-2,3,4,5,7,9-hexahydro-1,6-methanopyrido[1,2-b][1,2,5]triazonine-10-carboxamide], for which the EC50 with HIV-1 (IIIB) stood at 1.4 nM; with pLai RLuc reporter virus (setting [4]) it was 319 nM; with pLai RLuc reporter virus (setting [5]), 0.33 nM. Besides, the 50% cytotoxic concentration (CC50) with MT-4 cells came to 6870 nM.

Turning to `C[C@@H]1CC(F)(F)[C@H](C)N2CN1n1cc(C(=O)NCc3c(F)cc(F)cc3F)c(=O)c(O)c1C2=O` [Example C35, (1S,2R,5S)-4,4-difluoro-8-hydroxy-2,5-dimethyl-7,9-dioxo-N-(2,4,6-trifluorobenzyl)-2,3,4,5,7,9-hexahydro-1,6-methanopyrido[1,2-b][1,2,5]triazonine-10-carboxamide], the figures for the EC50 with HIV-1 (IIIB), in the series on pLai RLuc reporter virus (setting [1]) and with pLai RLuc reporter virus (setting [2]) were 1.6 nM, 188 nM and 1.3 nM, respectively. Further, the half-maximal cytotoxic concentration (CC50) with MT-4 cells was 29900 nM.

As to `C[C@H]1CCCCN2CN1n1cc(C(=O)NCc3ccc(F)cc3F)c(=O)c(O)c1C2=O` [Example C40, (1S,2S)—N-(2,4-difluorobenzyl)-9-hydroxy-2-methyl-8,10-dioxo-3,4,5,6,8,10-hexahydro-2H-1,7-methanopyrido[1,2-b][1,2,5]triazecine-11-carboxamide], the EC50 was 2.1 nM in the series on HIV-1 (IIIB), 139 nM in the series with pLai RLuc reporter virus (setting [1]) and 1.3 nM in the series on pLai RLuc reporter virus (setting [2]). Further, in the series with MT-4 cells, the CC50 came out at 16000 nM.

As for `C[C@H]1C/C=C\CN2CN1n1cc(C(=O)NCc3ccc(F)cc3F)c(=O)c(O)c1C2=O` [Example C41, (1S,2S,Z)—N-(2,4-difluorobenzyl)-9-hydroxy-2-methyl-8,10-dioxo-3,6,8,10-tetrahydro-2H-1,7-methanopyrido[1,2-b][1,2,5]triazecine-11-carboxamide], the EC50 with HIV-1 (IIIB) was 1.2 nM; in the series on pLai RLuc reporter virus (setting [4]), 68.6 nM; in the series on pLai RLuc reporter virus (setting [5]), 0.71 nM. Besides, the CC50 in the series on MT-4 cells was 14200 nM.

The record behind these values is patent US11613546B2, “Substituted pyridotriazine compounds and uses thereof” (Gilead Sciences, Inc., priority 2021, dated 2023).
